Source: US9556228B2 (Universitaet Leipzig, priority 2011, dated 2017)
Peptide text beside a SMILES is read from it.

Assays:
[1] = test system: Pseudomonas aeruginosa (luminescent strain); experiment: Substitution analysis of apidaecin 1b by peptide array, bioluminescence assay; format: cell-based; settings: FIG. 1, luminescence, P. aeruginosa
Procedure: To optimize the antimicrobial activity of apidaecin 1b, a substitution analysis was carried out using this peptide (according to SEQ ID No. 2). The substitution library was synthesized by means of SPOT synthesis, and was analyzed for antibacterial activity against Pseudomonas aeruginosa by means of bioluminescence assay.
The SPOT synthesis of the peptide libraries was carried out on Whatman 50 filter paper (Sigma-Aldrich, Germany) measuring 19×29 cm by means of the Fmoc method and a SPOT synthesizer (Intavis AG, Germany) (according to Reineke U et al. 2001). The luminescence screening method that was used is based on the publication by Hilpert and Hancock (Hilpert, 2007). The peptides synthesized on the membrane were split off and the peptide spots were punched out of the peptide membrane using a hole punch, and were transferred to a 96-well microtiter plate (Corning, USA), after which 200 μL distilled water per well was added. […]
In the second step, the actual screening was performed. […] The incubation suspension (4 vol. % Log C in 100 mM Tris-HCl buffer (pH 7.3) with 40 mM sterile filtered glucose) was then distributed to 96-well plates (VWR, Germany) that are suitable for luminescence, and incubated with a concentration series of the peptide library for 4 hours at 37° C. After incubation, luminescence measurement was performed using a luminometer (Thermo, Finland).

[2] = cited from earlier work

Row | Compound | substitution analysis value (measure of the activity; less than 1 = enhancement relative to native apidaecin) [1] | breakdown in mammalian serum (25%) [2]
1 | native apidaecin sequence that is substituted at position 1 with cysteine: apidaecin 1b (SEQ ID No. 2) substituted at position 1 with cysteine, from the SPOT substitution library (CNNRPVYIPQPRPPHPRL; listed as Apis mellifera) | 0.55 | –
2 | CC[C@H](C)[C@H](NC(=O)[C@@H]1CCCN1C(=O)[C@H](CCCNC(=N)N)NC(=O)[C@@H]1CCCN1C(=O)[C@H](Cc1cnc[nH]1)NC(=O)[C@H](CO)NC(=O)[C@@H](NC(=O)[C@@H]1CCCN1C(=O)[C@H](CCCNC(=N)N)NC(=O)[C@@H]1CCCN1C(=O)[C@H](CO)NC(=O)[C@H](Cc1ccc(O)cc1)NC(=O)[C@@H]1CCCN1C(=O)[C@H](CCCNC(=N)N)NC(=O)[C@@H]1CCCN1C(=O)[C@H](CCCCN)NC(=O)CN)[C@@H](C)O)C(=O)N[C@@H](CCCNC(=N)N)C(=O)N[C@H](C(=O)O)C(C)C [drosocin] (H-GKPRPYSPRPTSHPRPIRV-OH) | – | broken down within one hour
